Test results as given in patent publication US5641760A, “Method of treating candida infection” (Pence, Inc., priority 1994, dated 1997).

Experiments:
[1] = test system: Candida albicans strain #40 fimbriae (enriched fimbriae EF, 66 kDa fimbrial subunit/adhesin protein); test: Microtiter plate binding of fimbriae to immobilized glycosphingolipids; details: GSL immobilized in microtiter wells (0.5 μg/well)
Method: Binding of Candida fimbriae to GSLs was further assessed using an assay in which GSLs were immobilized on microtiter plates. […] The amount of fimbriae bound is represented as the absorbance values measured at 405 nm. The concentration of fimbrial protein required for half-maximal binding was determined to be 8 μg/ml under the assay conditions, indicating a reasonably high affinity of fimbriae for asialo-GM1.
Polystyrene microtiter plate wells (Nunc) were coated with asialo-GM1 or ceramide trihexoside (CTH) (Sigma Chem. Co., St. Louis, Mo.). Aliquots of the GSLs (5 μg/ml resuspended in methanol) were added into the wells (100 μl/well) and the plates were incubated overnight at 4° C. The wells were washed three times with 250 μl/well of 10 mM phosphate buffered saline pH 7.4 containing 150 mM NaCl (PBS) supplemented with 0.05% (w/v) bovine serum albumin (Buffer A). […] Wells were washed 5 times with 250 μl/well of Buffer A. Antibody binding to EF was assessed by the addition of a goat anti-mouse heavy and light chain [IgG(H+L)] immunoglobulin G-peroxidase conjugates (Jackson Laboratories) to each well (100 μl/well) and incubated for 1 hour at 37° C. […] The reaction was stopped by an addition of 125 μl/well of 4 mM sodium azide and the absorbance at 405 nm was recorded.

[2] = test system: Candida albicans fimbriae (binding to human BECs); test: Inhibition of fimbriae binding to human buccal epithelial cells (BECs); format: cell-based; details: fimbriae 50 μg preincubated with competitor 1 h at 37° C., 2.0×10^5 BECs
Method: The percent inhibition is the inhibition of binding in the presence of the competing antigens with respect to binding observed in the absence of any competitors.
The fimbrial adherence assay was performed using a Manifold filtration apparatus equipped with individual vacuum stopcocks (Model FH 225V, Hoefer Scientific Instruments). Polycarbonate filters, 12 μm pore size (Nucleopore Costar Corp.), were pre-incubated overnight at 4° C. with 50 ml of PBS pH 7.2, containing 0.45% (v/v) Tween 20. The pretreated filters were placed into each chamber and washed with 2.5 ml of PBS. 1 ml containing 2.0×10^5 BECs in PBS was added to each chamber. Enriched fimbriae (100 μl/chamber, ranging from 0 to 80 μg fimbriae protein/ml) in PBS containing 0.05% (v/v) Tween-20 was added to each chamber and incubated with the BECs for 1.5 hours at room temperature. Unbound fimbriae were removed with washes of 2.5 ml of PBS. Mouse anti-C. albicans fimbriae monoclonal antibody (ascites fluid diluted 1:3000 with PBS) was added to the BECs (1.2 ml/chamber) and incubated for 1.5 hour at room temperature. BECs were washed five times with 2.5 ml of PBS. Goat anti-mouse IgG(H+L)-peroxidase conjugates (Jackson Laboratories) diluted 1:5000 with PBS was added (1.0 ml/chamber) and incubated for another hour at room temperature. The cells were then washed seven times with 2.5 ml/chamber of PBS. The polycarbonate filters containing BECs were removed from the filtration manifold and placed into glass scintillation vials. The horseradish peroxidase substrate solution (ABTS) was added to each vial (1 ml/vial) and incubated for 30 min at room temperature on a shaker at 100 rpm. The reaction was stopped by the addition of 4 mM sodium azide (200 μl/vial). The substrate solution was pipetted into Eppendorf tubes and centrifuged at 5,000 g for 3 minutes. Aliquots of the supernatants were pipetted into microtiter wells (200 μl/well) and the resulting absorbance at 405 nm was recorded with a Titertek Multiskan Plus microplate recorder. […]

| Substance | Binding of fimbriae to glycosphingolipid coated on wells ([1]; EF 0 to 40 μg protein/ml) | Inhibition of C. albicans fimbriae binding to BECs [2] | Concentration of fimbrial protein required for half-maximal binding ([1]; the concentration is that of fimbrial protein) [µg/mL] | Inhibition of C. albicans fimbriae binding to BECs ([2]; competitor concentration not stated) [%] |
| --- | --- | --- | --- | --- |
| ceramide trihexoside [CTH, ceramide trihexoside [aGal(1-4)βGal(1-4)βGlc(1-1)Cer]] | failed to bind | failed to inhibit |  |  |
| gangliotetraosylceramide: βGal(1-3)βGalNAc(1-4)βGal(1-4)βGlc(1-1)Cer [asialo-GM1] |  |  | 8 | 80 |
